# According to US20240246967A1, “AXL COMPOUNDS” (ARCUS BIOSCIENCES, INC., priority 2021, published 2024):
# Target: T1, Axl (Homo sapiens, UniProt P30530)
# T1 sequence (P30530 26-894): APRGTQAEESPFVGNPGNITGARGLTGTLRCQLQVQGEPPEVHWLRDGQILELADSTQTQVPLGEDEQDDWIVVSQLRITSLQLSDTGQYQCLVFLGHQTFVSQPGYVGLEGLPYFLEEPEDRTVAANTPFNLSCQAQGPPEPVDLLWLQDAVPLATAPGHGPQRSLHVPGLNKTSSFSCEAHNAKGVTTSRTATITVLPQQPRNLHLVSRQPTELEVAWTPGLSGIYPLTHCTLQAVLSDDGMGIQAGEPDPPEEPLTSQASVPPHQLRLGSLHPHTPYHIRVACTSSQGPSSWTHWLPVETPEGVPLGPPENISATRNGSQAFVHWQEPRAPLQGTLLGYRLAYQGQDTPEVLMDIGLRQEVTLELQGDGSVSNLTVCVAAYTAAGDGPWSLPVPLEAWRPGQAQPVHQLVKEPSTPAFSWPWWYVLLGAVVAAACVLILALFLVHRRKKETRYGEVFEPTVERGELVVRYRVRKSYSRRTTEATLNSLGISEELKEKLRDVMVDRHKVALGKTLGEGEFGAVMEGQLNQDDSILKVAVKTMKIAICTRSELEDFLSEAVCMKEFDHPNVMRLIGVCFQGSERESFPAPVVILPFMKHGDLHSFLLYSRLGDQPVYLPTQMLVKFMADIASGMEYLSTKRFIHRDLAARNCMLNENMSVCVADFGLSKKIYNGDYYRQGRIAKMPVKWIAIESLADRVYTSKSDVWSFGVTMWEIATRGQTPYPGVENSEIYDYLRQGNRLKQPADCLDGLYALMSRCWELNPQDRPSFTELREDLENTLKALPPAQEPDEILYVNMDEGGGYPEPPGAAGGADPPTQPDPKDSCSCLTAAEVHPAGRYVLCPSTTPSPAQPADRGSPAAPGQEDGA
# Assay: Axl NanoBRET intracellular kinase assay (intracellular binding, Cell Binding)
# Design: host or cells: HEK-293
# Details: HEK-293 cells transfected with Axl-NanoLuc fusion vector; 0.35 μM K-5 NanoBRET tracer
# Outline: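 Intracellular binding measured as loss of BRET (610 nm/450 nm) when compounds displace 0.35 μM K-5 tracer from Axl-NanoLuc in transfected HEK-293 cells.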
row,Structure (SMILES),IC50 [nM]
1,"C[C@@H]1CCCN1[C@H]1CCc2cc(-c3cnc4[nH]nc(-c5ccc(S(=O)(=O)C6CC6)cc5)c4c3)cnc2CC1 [Example 102, (2R)-1-[(7S)-3-{3-[4-(Cyclopropanesulfonyl)phenyl]-1H-pyrazolo[3,4-b]pyridin-5-yl}-5H,6H,7H,8H,9H-cyclohepta[b]pyridin-7-yl]-2-methylpyrrolidine]",> 1000
2,"COC1CCN(S(=O)(=O)c2ccc(-c3n[nH]c4ncc(-c5ccc6c(c5)CCC(C)(N5CCC[C@H]5C)CC6)cc34)cc2)CC1 (stereo partly drawn) [Example 103, 3-(4-((4-Methoxypiperidin-1-yl)sulfonyl)phenyl)-5-(7-methyl-7-((R)-2-methylpyrrolidin-1-yl)-6,7,8,9-tetrahydro-5H-benzo[7]annulen-2-yl)-1H-pyrazolo[3,4-b]pyridine]",100 to 1000
3,"C[C@@H]1CCCN1C1(C)CCc2ccc(-c3cnc4[nH]nc(-c5ccc(S(=O)(=O)N6CCC6)cc5)c4c3)cc2CC1 (stereo partly drawn) [Example 104, (2R)-1-(2-{3-[4-(Azetidine-1-sulfonyl)phenyl]-1H-pyrazolo[3,4-b]pyridin-5-yl}-7-methyl-6,7,8,9-tetrahydro-5H-benzo[7]annulen-7-yl)-2-methylpyrrolidine]",< 100
4,"C[C@@H]1CCCN1C1(C)CCc2ccc(-c3cnc4[nH]cc(-c5ccc(S(=O)(=O)C6CC6)cc5)c4c3)cc2CC1 (stereo partly drawn) [Example 105, (2R)-1-(2-{3-[4-(Cyclopropanesulfonyl)phenyl]-1H-pyrrolo[2,3-b]pyridin-5-yl}-7-methyl-6,7,8,9-tetrahydro-5H-benzo[7]annulen-7-yl)-2-methylpyrrolidine]",< 100
5,"C[C@@H]1CCCN1C1(C)CCc2ccc(-c3cnc4[nH]nc(-c5ccc(N6CCOCC6)cc5)c4c3)cc2CC1 (stereo partly drawn) [Example 107, 4-[4-(5-{7-Methyl-7-[(2R)-2-methylpyrrolidin-1-yl]-6,7,8,9-tetrahydro-5H-benzo[7]annulen-2-yl}-1H-pyrazolo[3,4-b]pyridin-3-yl)phenyl]morpholine]",> 1000
6,"COCCNCc1ccc(-c2n[nH]c3ncc(-c4ccc5c(c4)CCC(C)(N4CCC[C@H]4C)CC5)cc23)cc1 (stereo partly drawn) [Example 108, (2-Methoxyethyl)({[4-(5-{7-methyl-7-[(2R)-2-methylpyrrolidin-1-yl]-6,7,8,9-tetrahydro-5H-benzo[7]annulen-2-yl}-1H-pyrazolo[3,4-b]pyridin-3-yl)phenyl]methyl})amine]",100 to 1000
7,"C[C@@H]1CCCN1C1CCc2ccc(-c3cnc4[nH]nc(-c5ccc(S(=O)(=O)C6CC6)cc5)c4c3)cc2C(C)(C)C1 (stereo partly drawn) [Example 109, (2R)-1-(2-{3-[4-(Cyclopropanesulfonyl)phenyl]-1H-pyrazolo[3,4-b]pyridin-5-yl}-9,9-dimethyl-6,7,8,9-tetrahydro-5H-benzo[7]annulen-7-yl)-2-methylpyrrolidine]",< 100
8,"COCCOc1ccc(-c2n[nH]c3ncc(-c4ccc5c(c4)CCC(C)(N4CCC[C@H]4C)CC5)cc23)cc1 (stereo partly drawn) [Example 110, 3-(4-(2-Methoxyethoxy)phenyl)-5-(7-methyl-7-((R)-2-methylpyrrolidin-1-yl)-6,7,8,9-tetrahydro-5H-benzo[7]annulen-2-yl)-1H-pyrazolo[3,4-b]pyridine]",< 100
9,"COCCS(=O)(=O)c1ccc(-c2n[nH]c3ncc(-c4ccc5c(c4)CCC(C)(N4CCC[C@H]4C)CC5)cc23)cc1 (stereo partly drawn) [Example 111, (2R)-1-(2-{3-[4-(2-Methoxyethanesulfonyl)phenyl]-1H-pyrazolo[3,4-b]pyridin-5-yl}-7-methyl-6,7,8,9-tetrahydro-5H-benzo[7]annulen-7-yl)-2-methylpyrrolidine]",< 100
10,"O=C([C@@H]1CCCN1)N1CCc2ccc(-c3cnc4[nH]nc(-c5ccc(S(=O)(=O)C6CC6)cc5)c4c3)cc2CC1 [Example 112, 7-{3-[4-(Cyclopropanesulfonyl)phenyl]-1H-pyrazolo[3,4-b]pyridin-5-yl}-3-[(2S)-pyrrolidine-2-carbonyl]-2,3,4,5-tetrahydro-1H-3-benzazepine]",100 to 1000
11,"O=C([C@H]1CCCN1)N1CCc2ccc(-c3cnc4[nH]nc(-c5ccc(S(=O)(=O)C6CC6)cc5)c4c3)cc2CC1 [Example 113, 7-{3-[4-(Cyclopropanesulfonyl)phenyl]-1H-pyrazolo[3,4-b]pyridin-5-yl}-3-[(2R)-pyrrolidine-2-carbonyl]-2,3,4,5-tetrahydro-1H-3-benzazepine]",100 to 1000
12,"COc1cc(-c2n[nH]c3ncc(-c4ccc5c(c4)CCC(C)(N4CCC[C@H]4C)CC5)cc23)ccc1OC[C@H]1COCCO1 (stereo partly drawn) [Example 114, (2R)-1-{2-[3-(4-{[(2R)-1,4-Dioxan-2-yl]methoxy}-3-methoxyphenyl)-1H-pyrazolo[3,4-b]pyridin-5-yl]-7-methyl-6,7,8,9-tetrahydro-5H-benzo[7]annulen-7-yl}-2-methylpyrrolidine]",< 100
13,"CC1(N[C@H]2CCOC2)CCc2ccc(-c3cnc4[nH]nc(-c5ccc(S(=O)(=O)C6CC6)cc5)c4c3)cc2CC1 (stereo partly drawn) [Example 115, (3S)-N-(2-{3-[4-(Cyclopropanesulfonyl)phenyl]-1H-pyrazolo[3,4-b]pyridin-5-yl}-7-methyl-6,7,8,9-tetrahydro-5H-benzo[7]annulen-7-yl)oxolan-3-amine]",100 to 1000
14,"C[C@@H]1CCCN1C1(C)CCc2ccc(-c3cnc4[nH]nc(-c5ccc(C(=O)N[C@H]6CCOC6)cc5)c4c3)cc2CC1 (stereo partly drawn) [Example 117, 4-(5-{7-Methyl-7-[(2R)-2-methylpyrrolidin-1-yl]-6,7,8,9-tetrahydro-5H-benzo[7]annulen-2-yl}-1H-pyrazolo[3,4-b]pyridin-3-yl)-N-[(3S)-oxolan-3-yl]benzamide]",< 100
15,"C[C@@H]1CCCN1C1(C)CCc2ccc(-c3cnc4[nH]nc(-c5ccc(C(=O)N6CCCC6)cc5)c4c3)cc2CC1 (stereo partly drawn) [Example 118, (2R)-2-Methyl-1-(7-methyl-2-{3-[4-(pyrrolidine-1-carbonyl)phenyl]-1H-pyrazolo[3,4-b]pyridin-5-yl}-6,7,8,9-tetrahydro-5H-benzo[7]annulen-7-yl)pyrrolidine]",< 100
16,"Cc1cc(-c2n[nH]c3ncc(-c4ccc5c(c4)CCN(C4CC4)CC5)cc23)ccc1C(=O)N1CCNCC1 [Example 119, 3-Cyclopropyl-7-{3-[3-methyl-4-(piperazine-1-carbonyl)phenyl]-1H-pyrazolo[3,4-b]pyridin-5-yl}-2,3,4,5-tetrahydro-1H-3-benzazepine]",100 to 1000
17,"CC1(N2CCc3ccc(-c4cnc5[nH]nc(-c6ccc(S(=O)(=O)C7CC7)cc6)c5c4)cc3CC2)CCCC1 [Example 120, 7-{3-[4-(Cyclopropanesulfonyl)phenyl]-1H-pyrazolo[3,4-b]pyridin-5-yl}-3-(1-methylcyclopentyl)-2,3,4,5-tetrahydro-1H-3-benzazepine]",100 to 1000
18,"O=C1OCCN1c1ccc(-c2n[nH]c3ncc(-c4ccc5c(c4)CC[C@@H](N4C6COCC4C6)CC5)cc23)cc1 [Example 121, 3-(4-{5-[(7S)-7-{3-oxa-6-azabicyclo[3.1.1]heptan-6-yl}-6,7,8,9-tetrahydro-5H-benzo[7]annulen-2-yl]-2H-pyrazolo[3,4-b]pyridin-3-yl}phenyl)-1,3-oxazolidin-2-one]",< 100
19,"O=C1CCCN1c1ccc(-c2n[nH]c3ncc(-c4ccc5c(c4)CC[C@@H](N4C6COCC4C6)CC5)cc23)cc1 [Example 122, 1-(4-{5-[(7S)-7-{3-oxa-6-azabicyclo[3.1.1]heptan-6-yl}-6,7,8,9-tetrahydro-5H-benzo[7]annulen-2-yl]-2H-pyrazolo[3,4-b]pyridin-3-yl}phenyl)pyrrolidin-2-one]",< 100
20,"COCCOc1ccc(-c2n[nH]c3ncc(-c4ccc5c(c4)CC[C@@H](N4C6COCC4C6)CC5)cc23)cc1 [Example 123, 6-[(7S)-2-{3-[4-(2-methoxyethoxy)phenyl]-2H-pyrazolo[3,4-b]pyridin-5-yl}-6,7,8,9-tetrahydro-5H-benzo[7]annulen-7-yl]-3-oxa-6-azabicyclo[3.1.1]heptane]",< 100
21,"CC(C)(C)S(=O)(=O)c1ccc(-c2n[nH]c3ncc(-c4ccc5c(c4)CC[C@@H](N4C6COCC4C6)CC5)cc23)cc1 [Example 124, 6-[(7S)-2-{3-[4-(2-methylpropane-2-sulfonyl)phenyl]-2H-pyrazolo[3,4-b]pyridin-5-yl}-6,7,8,9-tetrahydro-5H-benzo[7]annulen-7-yl]-3-oxa-6-azabicyclo[3.1.1]heptane]",< 100
22,"CN(C)C(=O)c1ccc(-c2n[nH]c3ncc(-c4ccc5c(c4)CC[C@@H](N4C6COCC4C6)CC5)cc23)cc1 [Example 125, N,N-Dimethyl-4-{5-[(7S)-7-{3-oxa-6-azabicyclo[3.1.1]heptan-6-yl}-6,7,8,9-tetrahydro-5H-benzo[7]annulen-2-yl]-2H-pyrazolo[3,4-b]pyridin-3-yl}benzamide]",< 100
